Laboratory results reported in US7276519B2, “Thieno[3,2-b]pyridine-6-carbonitriles and thieno[2,3-b]pyridine-5-carbonitriles as protein kinase inhibitors” (Wyeth, priority 2002, dated 2007).
Read-outs that look alike come from different tables or passages of the source.

Legend:
[1] = system: Rat2 fibroblasts stably transformed with v-Src/Hu c-Src fusion gene; test: Anchorage independent Src-transformed fibroblast proliferation assay; format: cell-based, rat; details: for inhibition at 100 µM / inhibition at 10 µM: Rat2, Table 1; for inhibition at 100 µM: read-out: Src cells % inh at 100 μM; for inhibition at 10 µM: read-out: Src cells % inh at 10 μM
Protocol: Anchorage Independent Src-Transformed Fibroblast Proliferation Assay Rat2 fibroblasts stably transformed with a plasmid containing a CMV promotor controlled v-Src/Hu c-Src fusion gene in which the catalytic domain of human c-Src was inserted in place of the v-Src catalytic domain in the v-Src gene are used for the measurement of src dependent suspension growth. […] Multiple entries for a given compound indicate that it was tested multiple times.

[2] = Rattus norvegicus, Rat2, 120 h, Table 1, suspension growth, MTS readout Day 5, read-out: Src cells IC50
[3] = Table 1, suspension growth, MTS readout Day 5, read-out: Src cells IC50

SMILES | melting point | IC50 [1, 2] | further results
COc1cc(Nc2c(C#N)cnc3cc(-c4ccc(CN5CCCCC5)cc4)sc23)c(Cl)cc1Cl [Example 18, 7-[(2,4-Dichloro-5-methoxyphenyl)amino]-2-[4-(piperidin-1-ylmethyl)phenyl]thieno[3,2-b]pyridine-6-carbonitrile] | 218 to 220 °C | 1 µM | –
N#Cc1cnc2ccsc2c1Sc1ccc(Cl)cc1Cl [Example 12, 7-[(2,4-Dichlorophenyl)thio]thieno[3,2-b]pyridine-6-carbonitrile] | 126 to 128 °C | – | inhibition at 10 µM ([1]; Rattus norvegicus): 23%
COc1ccc(C#Cc2cc3ncc(C#N)c(Nc4cc(OC)c(Cl)cc4Cl)c3s2)cc1 [Example 21, 7-[(2,4-Dichloro-5-methoxyphenyl)amino]-2-[(4-methoxyphenyl)ethynyl]thieno[3,2-b]pyridine-6-carbonitrile] | 249 to 250 °C | 32 µM | –
COc1cc(Nc2c(C#N)cnc3sccc23)c(Cl)cc1Cl [Example 5, 4-[(2,4-Dichloro-5-methoxyphenyl)amino]thieno[2,3-b]pyridine-5-carbonitrile] | 197 to 199 °C | 5.6 µM | –
COc1cc(Nc2c(C#N)cnc3cc(-c4cccc(CN5CCOCC5)c4)sc23)c(Cl)cc1Cl [Example 26, 7-[(2,4-Dichloro-5-methoxyphenyl)amino]-2-[3-(morpholin-4-ylmethyl)phenyl]thieno[3,2-b]pyridine-6-carbonitrile] | 205 to 207 °C | 1 µM | –
COc1cc(Nc2c(C#N)cnc3sc(I)cc23)c(Cl)cc1Cl [Example 7, 4-[(2,4-Dichloro-5-methoxyphenyl)amino]-2-iodothieno[2,3-b]pyridine-5-carbonitrile] | 231 to 233 °C | – | inhibition at 10 µM ([1]; Rattus norvegicus): 31%
CN1CCN(Cc2ccc(-c3cc4ncc(C#N)c(Nc5ccc(Oc6ccccc6)cc5)c4s3)cc2)CC1 [Example 44, 2-[4-(4-Methylpiperazin-1-ylmethyl)phenyl]-7-[(4-phenoxyphenyl)amino]thieno[3,2-b]pyridine-6-carbonitrile] | 199 to 201 °C | 2.4 µM | –
N#Cc1cnc2ccsc2c1NCc1ccc(Cl)cc1Cl [Example 13, 7-[(2,4-Dichlorobenzyl)amino]thieno[3,2-b]pyridine-6-carbonitrile] | 215 to 216 °C | – | inhibition at 10 µM ([1]; Rattus norvegicus): 34%
C#Cc1cc2ncc(C#N)c(Nc3cc(OC)c(Cl)cc3Cl)c2s1 [Example 33, 7-[(2,4-Dichloro-5-methoxyphenyl)amino]-2-ethynylthieno[3,2-b]pyridine-6-carbonitrile] | 198 to 200 °C | 0.88 µM | –
COc1cc(Nc2c(C#N)cnc3cc(-c4cc5ccccc5o4)sc23)c(Cl)cc1Cl [Example 24, 2-(1-Benzofuran-2-yl)-7-[(2,4-dichloro-5-methoxyphenyl)amino]thieno[3,2-b]pyridine-6-carbonitrile] | 281 to 282 °C | 3.8 µM | –
N#Cc1cnc2cc(-c3ccc(C=O)cc3)sc2c1Nc1ccc(Oc2ccccc2)cc1 [Example 43, 2-(4-Formylphenyl)-7-[(4-phenoxyphenyl)amino]thieno[3,2-b]pyridine-6-carbonitrile] | 230 to 232 °C | – | inhibition at 100 µM ([1]; Rattus norvegicus): 4%
COc1cc(Nc2c(C#N)cnc3sc(C)cc23)c(Cl)cc1Cl [Example 8, 4-[(2,4-Dichloro-5-methoxyphenyl)amino]-2-methylthieno[2,3-b]pyridine-5-carbonitrile] | 179 to 181 °C | – | inhibition at 10 µM ([1]; Rattus norvegicus): 33%
COc1cc(Nc2c(C#N)cnc3cc(-c4ccc(C=O)cc4)sc23)c(Cl)cc1Cl [Example 14, 7-[(2,4-Dichloro-5-methoxyphenyl)amino]-2-(4-formylphenyl)thieno[3,2-b]pyridine-6-carbonitrile] | 261 to 262 °C | 0.66 µM | –
COc1cc(Nc2c(C#N)cnc3sc(C#Cc4cccnc4)cc23)c(Cl)cc1Cl [Example 52, 4-[(2,4-Dichloro-5-methoxyphenyl)amino]-2-(pyridin-3-ylethynyl)thieno[2,3-b]pyridine-5-carbonitrile] | 191 °C (dec.) | – | inhibition at 100 µM ([1]; Rattus norvegicus): 61%
COc1cc(Nc2c(C#N)cnc3cc(-c4ccc(CN5CCN(Cc6ccccn6)CC5)cc4)sc23)c(Cl)cc1Cl [Example 124, 7-[(2,4-dichloro-5-methoxyphenyl)amino]-2-(4-{[4-(pyridin-2-ylmethyl)piperazin-1-yl]methyl}phenyl)thieno[3,2-b]pyridine-6-carbonitrile] | 105 to 107 °C | – | IC50 ([1]; Rattus norvegicus, Rat2, Table 3, read-out: Src Cells IC50 μM or % inhib at 10 μM (IC50 values)): 0.914 µM; IC50 ([1]; Table 3, read-out: Src Cells IC50 μM or % inhib at 10 μM (IC50 values)): 0.576 µM
N#Cc1cnc2cc(I)sc2c1Nc1ccc(Oc2ccccc2)cc1 [Example 42, 2-Iodo-7-[(4-phenoxyphenyl)amino]thieno[3,2-b]pyridine-6-carbonitrile] | 260 to 262 °C | – | inhibition at 100 µM ([1]; Rattus norvegicus): 5%
COc1cc(Nc2c(C#N)cnc3cc(-c4csc(C=O)c4)sc23)c(Cl)cc1Cl [Example 37, 7-[(2,4-Dichloro-5-methoxyphenyl)amino]-2-(5-formylthien-3-yl)thieno[3,2-b]pyridine-6-carbonitrile] | 259 to 261 °C | 1.1 µM | –
COc1cc(Nc2c(C#N)cnc3cc(-c4csc(C5OCCO5)c4)sc23)c(Cl)cc1Cl [Example 36, 7-[(2,4-Dichloro-5-methoxyphenyl)amino]-2-[5-(1,3-dioxolan-2-yl)thien-3-yl]thieno[3,2-b]pyridine-6-carbonitrile] | 219 to 221 °C | 1.6 µM | –
COc1cc(Nc2c(C#N)cnc3cc(-c4ccc(C=O)cc4)sc23)cc(OC)c1OC [Example 55, 2-(4-Formylphenyl)-7-[(3,4,5-trimethoxyphenyl)amino]thieno[3,2-b]pyridine-6-carbonitrile] | 268 to 270 °C | – | inhibition at 100 µM ([1]; Rattus norvegicus): 97%

Further lines, with some results ahead:

melting point | SMILES | IC50 [1, 2] | further results
254 to 256 °C | COc1cc(Nc2c(C#N)cnc3cc(I)sc23)cc(OC)c1OC [Example 47, 2-Iodo-7-[(3,4,5-trimethoxyphenyl)amino]thieno[3,2-b]pyridine-6-carbonitrile] | – | inhibition at 100 µM ([1]; Rattus norvegicus): 74%
249 to 250 °C | COc1cc(Nc2c(C#N)cnc3cc(C#Cc4cccnc4)sc23)c(Cl)cc1Cl [Example 35, 7-[(2,4-Dichloro-5-methoxyphenyl)amino]-2-(pyridin-3-ylethynyl)thieno[3,2-b]pyridine-6-carbonitrile] | 0.98 µM | –
224 °C (dec.) | COc1cc(Nc2c(C#N)cnc3cc(/C=C/C(=O)OC(C)(C)C)sc23)c(Cl)cc1Cl [Example 50, tert-Butyl (2E)-3-{6-cyano-7-[(2,4-dichloro-5-methoxyphenyl)amino]thieno[3,2-b]pyridin-2-yl}prop-2-enoate] | 7.4 µM | –
239 to 240 °C | COc1cc(Nc2c(C#N)cnc3cc(-c4ccc(CO)cc4)sc23)c(Cl)cc1Cl [Example 41, 7-[(2,4-Dichloro-5-methoxyphenyl)amino]-2-[4-(hydroxymethyl)phenyl]thieno[3,2-b]pyridine-6-carbonitrile] | 0.56 µM | –
248 to 250 °C | N#Cc1cnc2cc(Br)sc2c1Nc1ccc(Oc2ccccc2)cc1 [Example 48, 2-Bromo-7-[(4-phenoxyphenyl)amino]thieno[3,2-b]pyridine-6-carbonitrile] | – | inhibition at 100 µM ([1]; Rattus norvegicus): 30%
218 to 220 °C | COc1cc(Nc2c(C#N)cnc3cc(/C=C/C(=O)N4CCN(C)CC4)sc23)c(Cl)cc1Cl [Example 56, 7-[(2,4-Dichloro-5-methoxyphenyl)amino]-2-[(1E)-3-(4-methylpiperazin-1-yl)-3-oxoprop-1-enyl]thieno[3,2-b]pyridine-6-carbonitrile] | 3.93 µM | IC50 [1, 3]: 2.2 µM
164 to 166 °C | COc1cc(Nc2c(C#N)cnc3cc(C#CCN(C)C)sc23)c(Cl)cc1Cl [Example 23, 7-[(2,4-Dichloro-5-methoxyphenyl)amino]-2-[3-(dimethylamino)prop-1-ynyl]thieno[3,2-b]pyridine-6-carbonitrile] | 5.6 µM | –
225 to 227 °C | COc1cc(Nc2c(C#N)cnc3cc(-c4cnc(C=O)n4C)sc23)c(Cl)cc1Cl [Example 54, 7-[(2,4-Dichloro-5-methoxyphenyl)amino]-2-(2-formyl-1-methyl-1H-imidazol-5-yl)thieno[3,2-b]pyridine-6-carbonitrile] | 1.51 µM | IC50 [1, 3]: 1.01 µM
158 to 160 °C | N#Cc1cnc2ccsc2c1Oc1ccc(Cl)cc1Cl [Example 11, 7-[(2,4-Dichlorophenoxy)]thieno[3,2-b]pyridine-6-carbonitrile] | 23 µM | –
198 to 200 °C | N#Cc1cnc2ccsc2c1Nc1ccc(Cl)cc1Cl [Example 10, 7-[(2,4-Dichlorophenyl)amino]thieno[3,2-b]pyridine-6-carbonitrile] | 39 µM | –
